The target in assay [1] is Bone morphogenetic protein receptor type-1B (Homo sapiens, UniProt O00238).
In assay [2] the target is DnaJ homolog subfamily A member 1 (Homo sapiens, UniProt P31689).
In assay [3] the target is U5 small nuclear ribonucleoprotein 200 kDa helicase (Homo sapiens, UniProt O75643).
For assay [4], the target named is Protein kinase C alpha type (Homo sapiens, UniProt P17252).
Assay [5] addresses T1, Interleukin-1 receptor-associated kinase 4 (Homo sapiens, UniProt Q9NWZ3).
T1 sequence (Q9NWZ3 whole entry): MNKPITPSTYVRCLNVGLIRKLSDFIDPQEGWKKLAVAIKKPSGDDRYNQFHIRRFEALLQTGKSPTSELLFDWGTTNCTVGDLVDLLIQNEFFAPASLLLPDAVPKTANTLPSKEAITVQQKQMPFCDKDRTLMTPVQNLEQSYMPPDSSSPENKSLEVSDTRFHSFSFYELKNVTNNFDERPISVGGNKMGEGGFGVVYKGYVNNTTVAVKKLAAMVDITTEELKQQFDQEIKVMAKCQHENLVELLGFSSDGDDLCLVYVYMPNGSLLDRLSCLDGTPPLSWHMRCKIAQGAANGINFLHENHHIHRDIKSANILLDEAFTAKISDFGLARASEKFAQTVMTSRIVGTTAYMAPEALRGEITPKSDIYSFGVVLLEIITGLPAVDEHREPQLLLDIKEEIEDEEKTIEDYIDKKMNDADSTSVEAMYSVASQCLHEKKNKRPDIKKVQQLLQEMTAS

Assay [6] addresses GTP-binding nuclear protein Ran (Homo sapiens, UniProt P62826).
For assay [7], the target named is Serine/threonine-protein kinase 16 (Homo sapiens, UniProt O75716).
Assay [8] deals with T2, Dynamin-like GTPase OPA1, mitochondrial (Homo sapiens, UniProt O60313).
T2 sequence (O60313 whole entry): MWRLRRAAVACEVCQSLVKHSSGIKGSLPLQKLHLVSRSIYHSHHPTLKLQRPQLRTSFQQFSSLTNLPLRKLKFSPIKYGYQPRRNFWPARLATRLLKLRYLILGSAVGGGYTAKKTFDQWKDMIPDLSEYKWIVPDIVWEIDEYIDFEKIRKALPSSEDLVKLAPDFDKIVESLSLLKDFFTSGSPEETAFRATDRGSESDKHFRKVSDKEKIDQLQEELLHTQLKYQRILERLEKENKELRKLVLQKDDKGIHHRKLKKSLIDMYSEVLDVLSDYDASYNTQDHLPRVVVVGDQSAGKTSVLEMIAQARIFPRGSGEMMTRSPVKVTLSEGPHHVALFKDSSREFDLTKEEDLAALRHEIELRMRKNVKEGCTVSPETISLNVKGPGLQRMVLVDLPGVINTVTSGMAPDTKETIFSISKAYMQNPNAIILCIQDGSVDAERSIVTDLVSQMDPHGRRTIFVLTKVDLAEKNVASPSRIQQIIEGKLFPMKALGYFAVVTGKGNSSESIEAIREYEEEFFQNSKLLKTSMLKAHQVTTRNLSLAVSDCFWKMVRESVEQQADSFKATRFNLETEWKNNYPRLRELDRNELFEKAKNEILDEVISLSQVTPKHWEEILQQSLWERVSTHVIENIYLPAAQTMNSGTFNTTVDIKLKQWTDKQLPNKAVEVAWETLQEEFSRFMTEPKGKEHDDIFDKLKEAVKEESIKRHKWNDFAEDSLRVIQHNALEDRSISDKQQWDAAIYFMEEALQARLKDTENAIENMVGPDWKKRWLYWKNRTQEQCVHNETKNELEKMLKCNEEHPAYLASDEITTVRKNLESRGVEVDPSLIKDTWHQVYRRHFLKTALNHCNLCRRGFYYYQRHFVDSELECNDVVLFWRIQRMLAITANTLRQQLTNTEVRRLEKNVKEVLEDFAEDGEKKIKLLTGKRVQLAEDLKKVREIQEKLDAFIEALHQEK

In assay [9] the target is Mitogen-activated protein kinase 8 (Homo sapiens, UniProt P45983).
Chain of Mitogen-activated protein kinase 8 (P45983 whole entry): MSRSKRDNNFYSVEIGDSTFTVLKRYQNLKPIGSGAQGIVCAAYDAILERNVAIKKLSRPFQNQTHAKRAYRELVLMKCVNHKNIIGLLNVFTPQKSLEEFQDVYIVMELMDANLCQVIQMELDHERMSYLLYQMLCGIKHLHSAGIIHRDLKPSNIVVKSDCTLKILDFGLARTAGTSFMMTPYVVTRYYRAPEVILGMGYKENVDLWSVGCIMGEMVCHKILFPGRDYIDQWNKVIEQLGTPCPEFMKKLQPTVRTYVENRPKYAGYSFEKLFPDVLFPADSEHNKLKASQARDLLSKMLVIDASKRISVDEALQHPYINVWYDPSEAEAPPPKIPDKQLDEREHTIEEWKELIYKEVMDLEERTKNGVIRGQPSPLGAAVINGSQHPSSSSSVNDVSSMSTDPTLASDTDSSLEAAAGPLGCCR
Assay [10] has as its target Platelet-derived growth factor receptor beta (Homo sapiens, UniProt P09619).
Assay [11] addresses T3, Glycogen phosphorylase, liver form (Homo sapiens, UniProt P06737).
T3 sequence (P06737 whole entry): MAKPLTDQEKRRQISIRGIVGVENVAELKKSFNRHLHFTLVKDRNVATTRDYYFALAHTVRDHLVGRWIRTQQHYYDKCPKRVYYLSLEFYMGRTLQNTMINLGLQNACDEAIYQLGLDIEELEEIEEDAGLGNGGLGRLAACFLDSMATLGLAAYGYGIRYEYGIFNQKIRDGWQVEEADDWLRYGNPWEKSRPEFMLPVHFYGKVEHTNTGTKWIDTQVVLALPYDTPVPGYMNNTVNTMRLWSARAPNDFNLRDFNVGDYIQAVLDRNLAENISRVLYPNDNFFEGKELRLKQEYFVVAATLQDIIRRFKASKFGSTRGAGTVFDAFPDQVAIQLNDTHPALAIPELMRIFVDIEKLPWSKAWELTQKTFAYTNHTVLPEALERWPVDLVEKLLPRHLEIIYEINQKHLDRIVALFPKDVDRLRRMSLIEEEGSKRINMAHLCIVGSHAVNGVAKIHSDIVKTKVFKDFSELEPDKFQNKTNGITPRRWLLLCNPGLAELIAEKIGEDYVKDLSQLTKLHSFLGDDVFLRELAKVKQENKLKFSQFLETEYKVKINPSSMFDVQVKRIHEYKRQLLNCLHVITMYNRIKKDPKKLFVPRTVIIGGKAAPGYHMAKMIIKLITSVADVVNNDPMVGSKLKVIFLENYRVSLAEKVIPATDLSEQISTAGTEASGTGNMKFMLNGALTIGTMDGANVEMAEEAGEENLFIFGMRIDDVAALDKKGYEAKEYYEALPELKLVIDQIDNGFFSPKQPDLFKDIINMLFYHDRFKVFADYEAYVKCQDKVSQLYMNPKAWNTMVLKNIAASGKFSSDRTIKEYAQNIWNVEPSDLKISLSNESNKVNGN
The class given is subcellular, K-562, COLO 205, SK-N-BE(2) and MV-4-11, Cell lysate. Particulars: read-out: Kd apparent.

The next assay deals with Adenosine kinase (Homo sapiens, UniProt P55263).
Chain of Adenosine kinase (P55263 whole entry): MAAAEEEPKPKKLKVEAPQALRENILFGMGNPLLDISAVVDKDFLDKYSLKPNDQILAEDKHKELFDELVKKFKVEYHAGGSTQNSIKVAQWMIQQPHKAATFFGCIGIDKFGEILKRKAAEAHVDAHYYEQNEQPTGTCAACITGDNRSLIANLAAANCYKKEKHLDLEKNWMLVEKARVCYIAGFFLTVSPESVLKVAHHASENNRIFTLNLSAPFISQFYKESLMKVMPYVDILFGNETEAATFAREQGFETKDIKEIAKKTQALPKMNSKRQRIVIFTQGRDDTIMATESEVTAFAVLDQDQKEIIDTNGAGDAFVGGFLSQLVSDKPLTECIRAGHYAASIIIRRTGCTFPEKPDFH
Assay [12] concerns the target Tyrosine-protein kinase Fer (Homo sapiens, UniProt P16591).
In assay [13] the target is Serine/threonine-protein kinase 26 (Homo sapiens, UniProt Q9P289).
Chain of Serine/threonine-protein kinase 26 (Q9P289 whole entry): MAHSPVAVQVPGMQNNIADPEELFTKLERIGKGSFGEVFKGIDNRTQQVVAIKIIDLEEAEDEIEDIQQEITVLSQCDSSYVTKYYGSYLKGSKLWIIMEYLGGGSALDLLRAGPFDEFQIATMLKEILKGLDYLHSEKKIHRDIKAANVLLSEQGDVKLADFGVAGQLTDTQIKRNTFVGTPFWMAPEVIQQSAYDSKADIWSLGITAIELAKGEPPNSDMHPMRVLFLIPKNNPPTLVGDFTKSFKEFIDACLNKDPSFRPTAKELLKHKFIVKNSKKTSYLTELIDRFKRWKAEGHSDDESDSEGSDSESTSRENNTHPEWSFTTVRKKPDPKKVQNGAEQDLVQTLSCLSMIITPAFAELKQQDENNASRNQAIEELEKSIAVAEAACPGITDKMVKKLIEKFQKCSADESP

Activity calls are given as the source filed them. Rule as the data show it, for most assays here: actives have a measured Kd and inactives only a lower limit.
Also: in the data inactive means no Kd found up to 30 µM.

Chain of DnaJ homolog subfamily A member 1 (P31689 whole entry): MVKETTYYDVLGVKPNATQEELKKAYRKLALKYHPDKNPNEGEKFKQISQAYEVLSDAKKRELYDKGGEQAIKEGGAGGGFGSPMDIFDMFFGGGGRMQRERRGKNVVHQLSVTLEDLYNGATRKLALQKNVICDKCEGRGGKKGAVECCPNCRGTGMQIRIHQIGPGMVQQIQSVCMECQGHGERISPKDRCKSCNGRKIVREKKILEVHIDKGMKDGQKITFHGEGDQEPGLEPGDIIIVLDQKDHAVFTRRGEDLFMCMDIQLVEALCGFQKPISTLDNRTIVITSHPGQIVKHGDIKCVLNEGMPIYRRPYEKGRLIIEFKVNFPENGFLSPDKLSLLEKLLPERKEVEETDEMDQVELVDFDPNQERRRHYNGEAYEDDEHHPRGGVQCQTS
Chain of Tyrosine-protein kinase Fer (P16591 whole entry): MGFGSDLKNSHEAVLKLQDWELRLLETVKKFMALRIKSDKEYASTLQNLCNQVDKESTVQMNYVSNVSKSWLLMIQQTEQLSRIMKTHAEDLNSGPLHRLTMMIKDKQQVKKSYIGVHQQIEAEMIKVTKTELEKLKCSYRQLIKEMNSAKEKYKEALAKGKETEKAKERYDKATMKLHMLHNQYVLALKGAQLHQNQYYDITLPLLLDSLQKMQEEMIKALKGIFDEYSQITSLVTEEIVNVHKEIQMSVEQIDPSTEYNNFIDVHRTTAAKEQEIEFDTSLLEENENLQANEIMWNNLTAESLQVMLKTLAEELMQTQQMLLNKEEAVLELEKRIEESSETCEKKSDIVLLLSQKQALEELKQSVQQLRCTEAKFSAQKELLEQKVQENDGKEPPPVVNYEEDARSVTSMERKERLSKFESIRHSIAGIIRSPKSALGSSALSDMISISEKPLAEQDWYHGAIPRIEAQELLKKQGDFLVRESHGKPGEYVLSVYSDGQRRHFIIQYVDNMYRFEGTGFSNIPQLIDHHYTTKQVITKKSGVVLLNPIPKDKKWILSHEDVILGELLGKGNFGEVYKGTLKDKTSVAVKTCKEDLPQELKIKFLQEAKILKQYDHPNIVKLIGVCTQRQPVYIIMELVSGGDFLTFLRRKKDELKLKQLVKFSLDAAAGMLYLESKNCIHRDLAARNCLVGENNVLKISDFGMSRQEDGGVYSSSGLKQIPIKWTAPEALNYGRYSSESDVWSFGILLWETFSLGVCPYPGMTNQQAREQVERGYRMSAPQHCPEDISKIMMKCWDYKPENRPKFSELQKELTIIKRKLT
Chain of U5 small nuclear ribonucleoprotein 200 kDa helicase (O75643 whole entry): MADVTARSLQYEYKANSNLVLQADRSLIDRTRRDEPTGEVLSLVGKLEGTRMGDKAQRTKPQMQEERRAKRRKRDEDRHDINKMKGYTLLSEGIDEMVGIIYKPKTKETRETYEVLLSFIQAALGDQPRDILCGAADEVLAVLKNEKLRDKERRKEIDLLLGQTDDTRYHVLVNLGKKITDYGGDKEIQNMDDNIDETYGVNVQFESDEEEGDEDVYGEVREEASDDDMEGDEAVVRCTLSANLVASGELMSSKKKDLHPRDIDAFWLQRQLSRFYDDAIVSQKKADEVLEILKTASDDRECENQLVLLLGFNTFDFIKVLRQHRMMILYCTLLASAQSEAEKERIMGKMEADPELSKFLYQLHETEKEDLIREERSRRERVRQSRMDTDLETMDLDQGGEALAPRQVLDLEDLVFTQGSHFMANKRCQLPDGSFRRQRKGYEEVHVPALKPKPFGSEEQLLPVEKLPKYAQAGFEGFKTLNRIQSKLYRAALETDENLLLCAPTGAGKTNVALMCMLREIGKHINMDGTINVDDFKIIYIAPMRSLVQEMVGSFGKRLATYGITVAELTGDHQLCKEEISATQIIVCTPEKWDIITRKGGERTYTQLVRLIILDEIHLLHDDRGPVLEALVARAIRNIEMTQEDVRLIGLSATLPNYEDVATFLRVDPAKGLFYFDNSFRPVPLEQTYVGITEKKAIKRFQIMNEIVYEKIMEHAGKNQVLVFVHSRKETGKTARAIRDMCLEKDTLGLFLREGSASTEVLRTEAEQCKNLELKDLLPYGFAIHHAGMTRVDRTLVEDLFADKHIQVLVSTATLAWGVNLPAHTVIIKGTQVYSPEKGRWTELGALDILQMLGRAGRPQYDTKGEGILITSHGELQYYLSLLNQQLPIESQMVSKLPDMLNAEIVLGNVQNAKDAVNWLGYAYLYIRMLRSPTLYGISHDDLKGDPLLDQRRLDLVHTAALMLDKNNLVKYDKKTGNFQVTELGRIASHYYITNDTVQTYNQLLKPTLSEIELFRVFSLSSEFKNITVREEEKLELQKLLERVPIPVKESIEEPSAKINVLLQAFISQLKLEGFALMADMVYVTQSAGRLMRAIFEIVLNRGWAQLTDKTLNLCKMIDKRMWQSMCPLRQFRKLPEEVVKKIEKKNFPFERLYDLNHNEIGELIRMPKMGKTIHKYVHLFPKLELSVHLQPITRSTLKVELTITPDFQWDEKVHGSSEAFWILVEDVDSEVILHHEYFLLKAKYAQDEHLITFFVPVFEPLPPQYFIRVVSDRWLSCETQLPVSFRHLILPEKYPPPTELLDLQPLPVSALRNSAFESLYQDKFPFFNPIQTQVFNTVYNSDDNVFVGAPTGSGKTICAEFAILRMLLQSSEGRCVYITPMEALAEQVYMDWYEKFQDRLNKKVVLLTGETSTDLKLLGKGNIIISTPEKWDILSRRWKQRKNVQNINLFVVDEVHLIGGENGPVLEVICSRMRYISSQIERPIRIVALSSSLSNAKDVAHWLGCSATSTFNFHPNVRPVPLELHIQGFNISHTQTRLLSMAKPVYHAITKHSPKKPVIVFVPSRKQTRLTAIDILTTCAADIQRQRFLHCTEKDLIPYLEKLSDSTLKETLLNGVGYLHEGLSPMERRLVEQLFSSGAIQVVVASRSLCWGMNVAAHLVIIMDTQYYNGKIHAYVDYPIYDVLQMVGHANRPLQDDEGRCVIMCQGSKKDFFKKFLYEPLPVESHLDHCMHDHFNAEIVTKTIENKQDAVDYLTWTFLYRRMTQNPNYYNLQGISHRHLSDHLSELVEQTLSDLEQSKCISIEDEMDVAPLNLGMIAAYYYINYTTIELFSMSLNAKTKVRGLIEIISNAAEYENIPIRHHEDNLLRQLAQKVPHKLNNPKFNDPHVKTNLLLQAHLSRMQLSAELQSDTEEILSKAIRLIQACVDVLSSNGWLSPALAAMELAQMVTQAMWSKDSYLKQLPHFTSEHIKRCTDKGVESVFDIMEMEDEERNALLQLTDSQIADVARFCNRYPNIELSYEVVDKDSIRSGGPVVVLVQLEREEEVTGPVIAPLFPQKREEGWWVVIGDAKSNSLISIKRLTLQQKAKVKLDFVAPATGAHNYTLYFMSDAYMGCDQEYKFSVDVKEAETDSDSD
Chain of Bone morphogenetic protein receptor type-1B (O00238 whole entry): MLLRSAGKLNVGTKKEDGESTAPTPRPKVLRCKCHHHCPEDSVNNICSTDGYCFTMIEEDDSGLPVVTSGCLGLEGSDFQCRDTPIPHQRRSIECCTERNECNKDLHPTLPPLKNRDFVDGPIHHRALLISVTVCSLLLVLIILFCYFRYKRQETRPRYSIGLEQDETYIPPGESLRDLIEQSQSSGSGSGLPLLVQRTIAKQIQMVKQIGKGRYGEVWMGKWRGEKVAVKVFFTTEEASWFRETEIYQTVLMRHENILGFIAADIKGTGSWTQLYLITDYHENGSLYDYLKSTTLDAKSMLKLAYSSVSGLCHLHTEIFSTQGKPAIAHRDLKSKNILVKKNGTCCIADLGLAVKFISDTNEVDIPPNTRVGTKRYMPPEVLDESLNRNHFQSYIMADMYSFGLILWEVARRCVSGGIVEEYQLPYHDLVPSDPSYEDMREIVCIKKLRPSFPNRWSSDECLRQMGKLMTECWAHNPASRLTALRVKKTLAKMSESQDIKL

Regarding `Cc1ccc(-n2nc(C(C)(C)C)cc2NC(=O)NCc2cc(F)ccc2Oc2ccc3c(cnn3CCO)c2)cc1` [PEXMETINIB], the Kd in [1], in assay [2], in assay [3], in assay [4], in assay [5] and in [6] was > 30 µM (inactive) throughout. Further, the Kd (in assay [7]; in [8]; in assay [9]; in [10]; in [11]; on Adenosine kinase) was > 30 µM (inactive) in each case. The Kd in assay [12] and in [13] was > 30 µM (inactive) throughout.

For `CCN1CCN(Cc2ccc(-c3cc4c(N[C@H](C)c5ccccc5)ncnc4[nH]3)cc2)CC1` [AEE-788], the Kd in [1], in assay [2], in assay [3], in assay [4], in assay [5] and in assay [6] was > 30 µM (inactive) throughout. The Kd in assay [7] is > 30 µM (inactive); in assay [8], > 30 µM (inactive); in assay [9], > 30 µM (inactive); in [10], 9.38 µM (active); in [11], > 30 µM (inactive); at Adenosine kinase it was > 30 µM (inactive). Further, the Kd in assay [12] and in assay [13] was > 30 µM (inactive) in each case.

For the compound `Cc1ccc(NC(=O)c2ccc(CN3CC[C@H](N(C)C)C3)c(C(F)(F)F)c2)cc1Nc1nccc(-c2cncnc2)n1` [BAFETINIB], the Kd in assay [1], in assay [2], in assay [3], in assay [4], in [5] and in [6] was > 30 µM (inactive) in each case. Moreover, the Kd in assay [7] is > 30 µM (inactive); in assay [8], > 30 µM (inactive); in assay [9] it was > 30 µM (inactive); in [10], 3.13 µM (active); in [11], > 30 µM (inactive); at Adenosine kinase it was > 30 µM (inactive). Also, the Kd in [12] and in [13] was > 30 µM (inactive) in each case.

In the case of `CN(C)C(=O)c1cc2cnc(Nc3ccc(N4CCNCC4)cn3)nc2n1C1CCCC1` [RIBOCICLIB], the Kd in assay [1], in assay [2], in assay [3], in assay [4], in assay [5] and in [6] was > 30 µM (inactive) in each case. Further, the Kd (in assay [7]; in assay [8]; in assay [9]; in assay [10]; in assay [11]; at Adenosine kinase) was > 30 µM (inactive) throughout. Moreover, the Kd in [12] and in assay [13] was > 30 µM (inactive) in each case.

For the compound `COCCNCc1ccc(-c2cc3nccc(Oc4ccc(NC(=S)NC(=O)Cc5ccc(F)cc5)cc4F)c3s2)nc1` [GLESATINIB], the Kd in [1], in [2], in assay [3], in [4], in assay [5] and in assay [6] was > 30 µM (inactive) each time. The Kd is > 30 µM (inactive) in assay [7]; > 30 µM (inactive) in [8]; > 30 µM (inactive) in assay [9]; 2.78 µM (active) in [10]; > 30 µM (inactive) in assay [11]; > 30 µM (inactive) on Adenosine kinase. The Kd in assay [12] and in assay [13] was > 30 µM (inactive) each time.

As for `Cn1cc(-c2ccc3nnc(C(F)(F)c4ccc5ncccc5c4)n3n2)cn1` [JNJ-38877605], the Kd in [1], in assay [2], in [3], in [4], in [5] and in assay [6] was > 30 µM (inactive) throughout. Also, the Kd (in [7]; in assay [8]; in [9]; in [10]; in [11]; at Adenosine kinase) was > 30 µM (inactive) in each case. Also, the Kd in assay [12] and in [13] was > 30 µM (inactive) in each case.

As for `CN1CC[C@@H](c2c(O)cc(O)c3c(=O)cc(-c4ccccc4Cl)oc23)[C@@H]1CO`, the Kd in assay [1], in assay [2], in [3], in [4], in [5] and in assay [6] was > 30 µM (inactive) each time. For the same compound, the Kd (in assay [7]; in assay [8]; in [9]; in [10]; in assay [11]; on Adenosine kinase) was > 30 µM (inactive) in each case. Moreover, the Kd in assay [12] and in assay [13] was > 30 µM (inactive) throughout.

Take `Cc1cc(-c2cc(O)ccc2Cl)cc2nnc(Nc3ccc(OCCN4CCCC4)cc3)nc12`: the Kd in assay [1], in assay [2], in [3], in assay [4], in assay [5] and in [6] was > 30 µM (inactive) in each case. For the same compound, the Kd (in assay [7]; in assay [8]; in assay [9]; in assay [10]; in assay [11]; at Adenosine kinase) was > 30 µM (inactive) in each case. The Kd in [12] and in assay [13] was > 30 µM (inactive) each time.

The values are drawn from ChEMBL document CHEMBL3991601, “The target landscape of clinical kinase drugs” (Science, 2017).
